Data: paper PMC3923778 (PLoS Currents, 2014)

Test system: R6/2 mice
Test: Open Field Test
Format: in vivo, mouse
Set-up: key to Open Field Total Distance: direction of significant change vs Vehicle-treated R6/2 mice / Open Field Center Distance: direction of significant change vs Vehicle-treated R6/2 mice: ▲: significant enhancement compared to Vehicle-treated R6/2 mice (One-way ANOVA, Dunnett’s post-hoc); ▼: significant impairment compared to Vehicle-treated R6/2 mice (One-way ANOVA, Dunnett’s post-hoc)
Protocol: Motor function testing including open field and rear climbing tests were commenced at 4 weeks of age and continued at weeks 6, 8 and 12, for grip strength test at age weeks 4 and 12 and for rotarod at age weeks 4, 6 and 8. Compound treatment was started at 4 weeks of age after the baseline behavioral tests.
Open field test was performed at age weeks 4, 6, 8 and 12. The mice were tested on Mondays at approximately 10-30 lux of red light. The mice were brought to the experimental room for at least 1 h acclimation to the experimental room conditions prior to testing. Activity chambers (Med Associates Inc., St Albans, VT; 27 x 27 x 20.3 cm) are equipped with IR beams. Mice were placed in the center of the chamber and their behavior was recorded for 30 min in 5-minute bins. Quantitative analysis was performed on the following five dependent measures: total locomotion, locomotion in the center of the open field, rearing rate in the center, total rearing frequency and velocity.
All values are presented as mean ± Standard Error of Mean (SEM), and differences are considered to be statistically significant at the p < 0.05 level. Statistical analysis was performed using StatsDirect statistical software. Differences between group means were analyzed by 1-way-ANOVA followed by Dunnett’s test (comparison to the control (=vehicle treated TG mice) group). The acquisition of the Cued two-choice swim test was analyzed using Fisher’s exact test.

[1] = Age Week 4, 10 mg/kg p.o., BID, ANOVA
[2] = Age Week 4, 30 mg/kg p.o., BID, ANOVA
[3] = Age Week 6, 10 mg/kg p.o., BID, ANOVA
[4] = Age Week 6, 30 mg/kg p.o., BID, ANOVA
[5] = Age Week 8, 10 mg/kg p.o., BID, ANOVA
[6] = Age Week 8, 30 mg/kg p.o., BID, ANOVA
[7] = Age Week 12, 10 mg/kg p.o., BID
[8] = Age Week 12, 10 mg/kg p.o., BID, ANOVA
[9] = Age Week 12, 30 mg/kg p.o., BID
[10] = Age Week 12, 30 mg/kg p.o., BID, ANOVA

Compound: CN1C(=O)c2nc(Cc3ccc(C(F)(F)F)cc3)[nH]c2N2C1=N[C@H]1CCC[C@H]12 [SCH-51866, (+)-cis-5,6a,7,8,9,9a-hexahydro-2-[4-[trifluro-methyl]phenylmethyl]-5-methyl-cylopent[4,5]imidazo [2,1-b]purin-4(3H)one]
- Open Field Total Distance: p vs Vehicle-treated R6/2 mice [1]: ANOVA: p=0.792
- Open Field Total Rearing Frequency: p vs Vehicle-treated R6/2 mice [1]: ANOVA: p=0.542
- Open Field Average Velocity: p vs Vehicle-treated R6/2 mice [2]: ANOVA: p=0.461
- Open Field Center Distance: p vs Vehicle-treated R6/2 mice [2]: ANOVA: p=0.701
- Open Field Rearing Rate in Center: p vs Vehicle-treated R6/2 mice [2]: ANOVA: p=0.341
- Open Field Total Distance: p vs Vehicle-treated R6/2 mice [2]: ANOVA: p=0.792
- Open Field Total Rearing Frequency: p vs Vehicle-treated R6/2 mice [2]: ANOVA: p=0.542
- Open Field Average Velocity: p vs Vehicle-treated R6/2 mice [3]: ANOVA: p=0.686
- Open Field Center Distance: p vs Vehicle-treated R6/2 mice [3]: ANOVA: p=0.305
- Open Field Rearing Rate in Center: p vs Vehicle-treated R6/2 mice [3]: ANOVA: p=0.594
- Open Field Total Distance: p vs Vehicle-treated R6/2 mice [3]: ANOVA: p=0.101
- Open Field Total Rearing Frequency: p vs Vehicle-treated R6/2 mice [3]: ANOVA: p=0.639
- Open Field Average Velocity: p vs Vehicle-treated R6/2 mice [4]: ANOVA: p=0.686
- Open Field Center Distance: p vs Vehicle-treated R6/2 mice [4]: ANOVA: p=0.305
- Open Field Rearing Rate in Center: p vs Vehicle-treated R6/2 mice [4]: ANOVA: p=0.594
- Open Field Total Distance: p vs Vehicle-treated R6/2 mice [4]: ANOVA: p=0.101
- Open Field Total Rearing Frequency: p vs Vehicle-treated R6/2 mice [4]: ANOVA: p=0.639
- Open Field Average Velocity: p vs Vehicle-treated R6/2 mice [5]: ANOVA: p=0.138
- Open Field Center Distance: p vs Vehicle-treated R6/2 mice [5]: ANOVA: p=0.693
- Open Field Rearing Rate in Center: p vs Vehicle-treated R6/2 mice [5]: ANOVA: p=0.519
- Open Field Total Distance: p vs Vehicle-treated R6/2 mice [5]: ANOVA: p=0.333
- Open Field Total Rearing Frequency: p vs Vehicle-treated R6/2 mice [5]: ANOVA: p=0.395
- Open Field Average Velocity: p vs Vehicle-treated R6/2 mice [6]: ANOVA: p=0.138
- Open Field Center Distance: p vs Vehicle-treated R6/2 mice [6]: ANOVA: p=0.693
- Open Field Rearing Rate in Center: p vs Vehicle-treated R6/2 mice [6]: ANOVA: p=0.519
- Open Field Total Distance: p vs Vehicle-treated R6/2 mice [6]: ANOVA: p=0.333
- Open Field Total Rearing Frequency: p vs Vehicle-treated R6/2 mice [6]: ANOVA: p=0.395
- Open Field Center Distance: p vs Vehicle-treated R6/2 mice [7]: p=0.112
- Open Field Total Distance: p vs Vehicle-treated R6/2 mice [7]: p=0.454
- Open Field Average Velocity: p vs Vehicle-treated R6/2 mice [8]: ANOVA: p=0.197
- Open Field Rearing Rate in Center: p vs Vehicle-treated R6/2 mice [8]: ANOVA: p=0.423
- Open Field Total Rearing Frequency: p vs Vehicle-treated R6/2 mice [8]: ANOVA: p=0.703
- Open Field Center Distance: direction of significant change vs Vehicle-treated R6/2 mice [9]: ▼
- Open Field Center Distance: p vs Vehicle-treated R6/2 mice [9]: 0.012
- Open Field Total Distance: direction of significant change vs Vehicle-treated R6/2 mice [9]: ▼
- Open Field Total Distance: p vs Vehicle-treated R6/2 mice [9]: 0.016
- Open Field Average Velocity: p vs Vehicle-treated R6/2 mice [10]: ANOVA: p=0.197
- Open Field Rearing Rate in Center: p vs Vehicle-treated R6/2 mice [10]: ANOVA: p=0.423
- Open Field Total Rearing Frequency: p vs Vehicle-treated R6/2 mice [10]: ANOVA: p=0.703
- Open field total distance traveled, distance in center, total rear frequency, average velocity, effect in words (chronic administration in R6/2 mice): no improvement
- performance in open field evaluation, effect in words (highest dose group, 12 weeks of age): modest but significant worsening of performance
